In US20120040955A1 (priority 2009, published 2012):

What was measured:
JAK2 = biological target: T1, JAK2 (Homo sapiens, UniProt O60674); experiment: kinobeads assay (competition with affinity matrix in mixed Molt4/Ramos cell lysate, dot blot detection), JAK2; assay type: binding; conditions: activity level
T1 construct: endogenous in cells; host or cells: Mixed Molt4 / Ramos cell lysate (1:2)
Protocol: (§1) The compounds of the present invention as described in the previous examples were tested in a kinobeads assay as described for ZAP-70 (WO-A 2007/137867). Briefly, test compounds (at various concentrations) and the affinity matrix with the immobilized aminopyrido-pyrimidine ligand 24 were added to cell lysate aliquots and allowed to bind to the proteins in the lysate sample. After the incubation time the beads with captured proteins were separated from the lysate. Bound proteins were then eluted and the presence of, JAK2 and JAK3 was detected and quantified using specific antibodies in a dot blot procedure and the Odyssey infrared detection system. Dose response curves for individual kinases were generated and IC50 values calculated. Kinobeads assays for ZAP-70 (WO-A 2007/137867) and for kinase selectivity profiling (WO-A 2006/134056) have been previously described.
(§2) 5× DP buffer: 250 mM Tris-HCl pH 7.4, 25% Glycerol, 7.5 mM MgCl2, 750 mM NaCl, 5 mM Na3VO4; filter the 5× DP buffer through a 0.22 μm filter and store in aliquots at −80° C. The 5× DP buffer is diluted with H2O to 1× DP buffer containing 1 mM DTT and 25 mM NaF.
(§3) Stock solutions of test compounds were prepared in DMSO. In a 96 well plate 30 μl solution of diluted test compounds at 5 mM in DMSO were prepared. Starting with this solution a 1:3 dilution series (9 steps) was prepared. For control experiments (no test compound) a buffer containing 2% DMSO was used.
(§4) Molt4 cells (ATCC catalogue number CRL-1582) and Ramos cells (ATCC catalogue number CRL-1596) were grown in 1 litre Spinner flasks (Integra Biosciences, #182101) in suspension in RPMI 1640 medium (Invitrogen, #21875-034) supplemented with 10% Fetal Bovine Serum (Invitrogen) at a density between 0.15×10^6 and 1.2×10^6 cells/ml. Cells were harvested by centrifugation, washed once with 1× PBS buffer (Invitrogen, #14190-094) and cell pellets were frozen in liquid nitrogen and subsequently stored at −80° C. Cells were homogenized in a Potter S homogenizer in lysis buffer: 50 mM Tris-HCl, 0.8% NP40, 5% glycerol, 150 mM NaCl, 1.5 mM MgCl2, 25 mM NaF, 1 mM sodium vanadate, 1 mM DTT, pH 7.5. One complete EDTA-free tablet (protease inhibitor cocktail, Roche Diagnostics, 1873580) per 25 ml buffer was added. The material was dounced 10 times using a mechanized POTTER S, transferred to 50 ml falcon tubes, incubated for 30 minutes on ice and spun down for 10 min at 20,000 g at 4° C. (10,000 rpm in Sorvall SLA600, precooled). The supernatant was transferred to an ultracentrifuge (UZ)-polycarbonate tube (Beckmann, 355654) and spun for 1 hour at 100.000 g at 4° C. (33.500 rpm in Ti50.2, precooled). The supernatant was transferred again to a fresh 50 ml falcon tube, the protein concentration was determined by a Bradford assay (BioRad) and samples containing 50 mg of protein per aliquot were prepared. The samples were immediately used for experiments or frozen in liquid nitrogen and stored frozen at −80° C.
(§5) Cell lysate (approximately 50 mg protein per plate) was thawed in a water bath at room temperature and then kept on ice. To the thawed cell lysate 1× DP 0.8% NP40 buffer containing protease inhibitors (1 tablet for 25 ml buffer; EDTA-free protease inhibitor cocktail; Roche Diagnostics 1873580) was added in order to reach a final protein concentration of 5 mg/ml total protein. The diluted cell lysate was stored on ice. Mixed Molt4/Ramos lysate was prepared by combining one volume of Molt4 lysate and two volumes of Ramos lysate (ratio 1:2).
(§6) To a 96 well filter plate (Multiscreen HTS, BV Filter Plates, Millipore #MSBVN1250) were added per well: 100 μl affinity matrix (3% beads slurry), 3 μl of compound solution, and 50 μl of diluted lysate. Plates were sealed and incubated for three hours in a cold room on a plate shaker (Heidolph tiramax 1000) at 750 rpm. Afterwards the plate was washed twice with 230 μl washing buffer (1× DP 0.4% NP40). […]

JAK3 = biological target: T2, JAK3 (Homo sapiens, UniProt P52333); experiment: kinobeads assay (competition with affinity matrix in mixed Molt4/Ramos cell lysate, dot blot detection), JAK3; assay type: binding; conditions: activity level
T2 construct: endogenous in cells; host or cells: Mixed Molt4 / Ramos cell lysate (1:2)
T2 sequence (P52333 1-1124): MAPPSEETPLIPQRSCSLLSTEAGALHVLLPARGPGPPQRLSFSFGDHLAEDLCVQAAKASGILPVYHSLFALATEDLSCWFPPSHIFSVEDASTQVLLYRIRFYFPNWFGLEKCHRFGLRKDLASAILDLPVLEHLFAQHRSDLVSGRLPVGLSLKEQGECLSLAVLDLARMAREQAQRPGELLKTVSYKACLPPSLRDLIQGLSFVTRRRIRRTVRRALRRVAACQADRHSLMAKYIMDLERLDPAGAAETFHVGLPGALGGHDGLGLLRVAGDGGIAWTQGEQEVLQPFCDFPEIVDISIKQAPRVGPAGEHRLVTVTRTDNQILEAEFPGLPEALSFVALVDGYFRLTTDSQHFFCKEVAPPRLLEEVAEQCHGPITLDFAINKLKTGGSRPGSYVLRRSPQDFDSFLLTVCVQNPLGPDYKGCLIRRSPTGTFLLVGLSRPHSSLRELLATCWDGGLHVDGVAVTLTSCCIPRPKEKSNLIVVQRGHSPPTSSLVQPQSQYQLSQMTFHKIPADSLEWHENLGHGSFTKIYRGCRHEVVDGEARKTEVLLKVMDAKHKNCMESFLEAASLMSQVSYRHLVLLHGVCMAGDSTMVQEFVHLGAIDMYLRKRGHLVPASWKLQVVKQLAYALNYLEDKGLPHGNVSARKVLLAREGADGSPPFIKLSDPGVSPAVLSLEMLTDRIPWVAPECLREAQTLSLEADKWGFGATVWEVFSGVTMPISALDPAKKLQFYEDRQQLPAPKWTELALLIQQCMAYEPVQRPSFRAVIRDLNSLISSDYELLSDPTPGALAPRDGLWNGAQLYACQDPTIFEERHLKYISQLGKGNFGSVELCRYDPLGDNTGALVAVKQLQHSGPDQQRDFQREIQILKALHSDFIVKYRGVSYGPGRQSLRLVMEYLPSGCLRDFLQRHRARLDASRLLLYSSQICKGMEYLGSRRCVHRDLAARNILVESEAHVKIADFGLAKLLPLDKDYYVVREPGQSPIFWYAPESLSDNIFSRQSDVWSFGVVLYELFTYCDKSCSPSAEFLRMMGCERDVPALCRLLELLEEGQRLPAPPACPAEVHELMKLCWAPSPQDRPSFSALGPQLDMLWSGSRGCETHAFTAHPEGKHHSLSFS
Protocol: as §1, §2, §3, §4, §5, §6

T1 sequence (O60674 whole entry): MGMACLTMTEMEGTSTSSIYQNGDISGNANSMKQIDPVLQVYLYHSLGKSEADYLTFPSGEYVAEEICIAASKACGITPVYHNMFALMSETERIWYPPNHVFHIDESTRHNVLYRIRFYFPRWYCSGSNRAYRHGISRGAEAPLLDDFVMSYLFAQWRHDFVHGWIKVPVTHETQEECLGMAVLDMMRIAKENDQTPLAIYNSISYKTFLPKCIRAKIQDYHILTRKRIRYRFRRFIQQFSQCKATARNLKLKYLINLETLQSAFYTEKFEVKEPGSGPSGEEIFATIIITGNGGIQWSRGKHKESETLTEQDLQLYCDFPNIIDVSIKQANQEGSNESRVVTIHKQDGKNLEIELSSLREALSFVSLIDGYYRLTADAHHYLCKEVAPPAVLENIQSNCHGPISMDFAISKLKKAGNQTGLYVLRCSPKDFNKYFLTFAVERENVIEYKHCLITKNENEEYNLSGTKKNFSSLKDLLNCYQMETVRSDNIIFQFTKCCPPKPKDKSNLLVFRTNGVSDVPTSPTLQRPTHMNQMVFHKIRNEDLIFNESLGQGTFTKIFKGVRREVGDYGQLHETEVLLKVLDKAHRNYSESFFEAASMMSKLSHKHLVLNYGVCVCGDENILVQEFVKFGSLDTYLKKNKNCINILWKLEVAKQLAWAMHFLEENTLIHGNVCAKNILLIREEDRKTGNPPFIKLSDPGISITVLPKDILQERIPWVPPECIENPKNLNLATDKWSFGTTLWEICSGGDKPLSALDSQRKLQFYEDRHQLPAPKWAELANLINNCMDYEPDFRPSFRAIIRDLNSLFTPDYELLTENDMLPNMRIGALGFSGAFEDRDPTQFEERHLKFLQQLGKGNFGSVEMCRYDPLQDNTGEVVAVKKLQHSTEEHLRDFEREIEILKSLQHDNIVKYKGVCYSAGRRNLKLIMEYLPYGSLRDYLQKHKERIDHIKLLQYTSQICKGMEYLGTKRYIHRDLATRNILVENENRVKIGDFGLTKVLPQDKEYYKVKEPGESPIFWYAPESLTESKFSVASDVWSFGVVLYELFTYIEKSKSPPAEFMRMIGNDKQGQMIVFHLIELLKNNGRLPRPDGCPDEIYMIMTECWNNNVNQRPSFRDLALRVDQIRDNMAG

| IC50 (JAK2) [nM] | IC50 (JAK3) [nM] | SMILES |
| --- | --- | --- |
| > 10000 | 100 to 1000 | CCS(=O)(=O)Nc1ccccc1Nc1nc(Nc2cc(C(=O)N3CCCC3)ccc2F)ncc1Cl [Example 41, N-(2-(5-chloro-2-(2-fluoro-5-(pyrrolidine-1-carbonyl)phenylamino)pyrimidin-4-ylamino)phenyl)ethanesulfonamide] |
| > 10000 | < 100 | Cc1cccc(Nc2nc(Nc3cc(-n4cnnn4)ccc3F)ncc2F)c1NS(C)(=O)=O [Example 4, N-(2-(5-fluoro-2-(2-fluoro-5-(1H-tetrazol-1-yl)phenylamino)pyrimidin-4-ylamino)-6-methylphenyl)methanesulfonamide] |
| 1000 to 10000 | < 100 | CS(=O)(=O)Nc1ccccc1Nc1nc(Nc2cc(C(=O)NCCO)ccc2F)ncc1Cl [Example 22, 3-(5-chloro-4-(2-(methylsulfonamido)phenylamino)pyrimidin-2-ylamino)-4-fluoro-N-(2-hydroxyethyl)benzamide] |
| 100 to 1000 | < 100 | CS(=O)(=O)Nc1c(F)cccc1Nc1nc(Nc2cc(-n3cnnn3)ccc2F)ncc1Cl [Example 55, N-(2-(5-chloro-2-(2-fluoro-5-(1H-tetrazol-1-yl)phenylamino)pyrimidin-4-ylamino)-6-fluorophenyl)methanesulfonamide] |
|  | < 100 | CS(=O)(=O)Nc1ccccc1Nc1nc(Nc2cc(C(=O)NC3CC3)ccc2F)ncc1Cl [Example 15] |
| > 10000 | 100 to 1000 | CS(=O)(=O)Nc1ccccc1Nc1nc(Nc2cc(C(N)=O)ccc2F)ncc1F [Example 29, 4-fluoro-3-(5-fluoro-4-(2-(methylsulfonamido)phenylamino)pyrimidin-2-ylamino)benzamide] |
| 100 to 1000 | < 100 | CCNC(=O)c1ccc(F)c(Nc2ncc(Cl)c(Nc3ccccc3NS(C)(=O)=O)n2)c1 [Example 14] |
| > 10000 | < 100 | COCCNC(=O)c1ccc(F)c(Nc2ncc(Cl)c(Nc3ccccc3NS(C)(=O)=O)n2)c1 [Example 53, 3-(5-chloro-4-(2-(methylsulfonamido)phenylamino)pyrimidin-2-ylamino)-4-fluoro-N-(2-methoxyethyl)benzamide] |
| > 10000 | < 100 | Cc1cccc(Nc2nc(Nc3cc(C(=O)NCCO)ccc3F)ncc2Cl)c1NS(C)(=O)=O [Example 59, 3-((5-chloro-4-((3-methyl-2-(methylsulfonamido)phenyl)amino)pyrimidin-2-yl)amino)-4-fluoro-N-(2-hydroxyethyl)benzamide] |
| > 10000 | < 100 | CCS(=O)(=O)Nc1ccccc1Nc1nc(Nc2cc(C(=O)NC3CC3)ccc2F)ncc1Cl [Example 42, 3-(5-chloro-4-(2-(ethylsulfonamido)phenylamino)pyrimidin-2-ylamino)-N-cyclopropyl-4-fluorobenzamide] |
| > 10000 | < 100 | CS(=O)(=O)Nc1c(F)cccc1Nc1nc(Nc2cc(-n3cnnn3)ccc2F)ncc1F [Example 3, N-(2-fluoro-6-(5-fluoro-2-(2-fluoro-5-(1H-tetrazol-1-yl)phenylamino)pyrimidin-4-ylamino)phenyl)methanesulfonamide] |
| > 10000 | < 100 | CCNC(=O)c1ccc(F)c(Nc2ncc(Cl)c(Nc3ccccc3NS(=O)(=O)CC)n2)c1 [Example 39, 3-(5-chloro-4-(2-(ethylsulfonamido)phenylamino)pyrimidin-2-ylamino)-N-ethyl-4-fluorobenzamide] |
| 100 to 1000 | < 100 | CS(=O)(=O)Nc1ccccc1Nc1nc(Nc2cc(-n3cnnn3)ccc2F)ncc1Br [Example 12, N-(2-(5-bromo-2-(2-fluoro-5-(1H-tetrazol-1-yl)phenylamino)pyrimidin-4-ylamino)phenyl)methanesulfonamide] |
| > 10000 | 100 to 1000 | CCS(=O)(=O)Nc1ccccc1Nc1nc(Nc2cc(C#N)ccc2F)ncc1Cl [Example 43, N-(2-(5-chloro-2-(5-cyano-2-fluorophenylamino)pyrimidin-4-ylamino)phenyl)ethanesulfonamide] |
| 1000 to 10000 | < 100 | CS(=O)(=O)Nc1ccccc1Nc1nc(Nc2cc(C(=O)NCC#N)ccc2F)ncc1Cl [Example 25] |
| > 10000 | 100 to 1000 | CNC(=O)c1ccc(F)c(Nc2ncc(F)c(Nc3ccccc3NS(C)(=O)=O)n2)c1 [Example 30, 3-(5-fluoro-4-(2-(methylsulfonamido)phenylamino)pyrimidin-2-ylamino)-4-fluoro-N-methybenzamide] |
| 1000 to 10000 | < 100 | CS(=O)(=O)Nc1ccccc1Nc1nc(Nc2cc(-n3cnnn3)ccc2F)ncc1F [Example 1, N-(2-(5-fluoro-2-(2-fluoro-5-(1H-tetrazol-1-yl)phenylamino)pyrimidin-4-ylamino)phenyl)methanesulfonamide] |
|  | < 100 | CS(=O)(=O)Nc1ccccc1Nc1nc(Nc2cc(C(=O)N3CCC3)ccc2F)ncc1Cl [Example 20, N-(2-(2-(5-(azetidine-1-carbonyl-2-fluorophenylamino))-5-chloropyrimidin-4-ylamino)phenyl)methanesulfonamide] |
|  | < 100 | CC(C)NC(=O)c1ccc(F)c(Nc2ncc(Cl)c(Nc3ccccc3NS(C)(=O)=O)n2)c1 [Example 16] |
|  | 100 to 1000 | CCN(CC)C(=O)c1ccc(F)c(Nc2ncc(Cl)c(Nc3ccccc3NS(C)(=O)=O)n2)c1 [Example 19, 3-(5-chloro-4-(2-(methylsulfonamido)phenylamino)pyrimidin-2-ylamino)-N,N-diethyl-4-fluorobenzamide] |
